Broadly, the Ki is the dissociation constant of the complex between target and ligand, obtained from inhibition or displacement.

Like-named read-outs stand apart in the source and are kept apart here.

23 molecules from US20090028925A1, “Novel Phosphinic Acid-Containing Thyromimetics” (priority 2005, published 2009) can be followed below.

One test has as its system plasma cholesterol. The test can be described thus: Cholesterol lowering in hypercholesterolemic rats. It is filed as in vivo. To be noted: for % Cholesterol Lowering / change in vivo at 0.5 mg/kg/day: delivered p.o. (0.5 mg/kg/d), percentage change from pre-dose cholesterol; for change in vivo at 0.5 mg/kg/day: Rattus norvegicus, po, read-out: % Cholesterol Lowering.
Test [1] addresses T1, human thyroid hormone receptors TRβ1 (Homo sapiens, UniProt P10828).
T1 construct: made in house; host or cells: Sf9 insect cells (baculovirus)
T1 sequence (P10828 1-461): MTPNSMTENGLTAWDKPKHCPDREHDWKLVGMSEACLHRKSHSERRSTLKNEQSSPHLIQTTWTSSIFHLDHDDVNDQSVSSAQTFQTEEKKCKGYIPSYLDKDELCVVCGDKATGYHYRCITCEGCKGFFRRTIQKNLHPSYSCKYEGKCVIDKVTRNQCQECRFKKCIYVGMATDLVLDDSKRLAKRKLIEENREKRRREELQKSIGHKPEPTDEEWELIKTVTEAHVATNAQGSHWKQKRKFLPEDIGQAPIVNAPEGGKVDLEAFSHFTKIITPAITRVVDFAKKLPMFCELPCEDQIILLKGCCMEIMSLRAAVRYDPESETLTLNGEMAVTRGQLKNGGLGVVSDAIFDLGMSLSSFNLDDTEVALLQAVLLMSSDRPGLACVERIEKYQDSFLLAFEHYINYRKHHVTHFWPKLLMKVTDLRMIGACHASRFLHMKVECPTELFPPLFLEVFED
T1 sequence (P19793 1-462 partner): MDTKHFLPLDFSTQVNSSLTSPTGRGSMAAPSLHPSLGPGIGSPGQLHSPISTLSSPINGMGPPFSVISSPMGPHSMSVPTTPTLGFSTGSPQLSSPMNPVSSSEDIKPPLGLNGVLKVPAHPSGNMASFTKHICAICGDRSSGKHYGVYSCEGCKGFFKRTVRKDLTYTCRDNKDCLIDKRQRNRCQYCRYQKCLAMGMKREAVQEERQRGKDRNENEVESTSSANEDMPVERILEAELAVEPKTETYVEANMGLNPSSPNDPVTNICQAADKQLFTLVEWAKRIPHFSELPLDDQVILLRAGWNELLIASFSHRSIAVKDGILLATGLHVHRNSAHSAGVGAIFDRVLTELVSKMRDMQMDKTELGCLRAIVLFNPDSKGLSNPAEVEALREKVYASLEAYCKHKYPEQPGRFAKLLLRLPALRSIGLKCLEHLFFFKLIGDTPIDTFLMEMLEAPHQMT
Put plainly: Receptor binding to TRβ1 (gel filtration and scintillation proximity assay, labeled T3). The method, then:
(§1) Methods: Baculoviruses expressing TRα1, TRβ1 and RXRα were generated using cDNA and other reagents from Invitrogen (Carlsbad, Calif.). To produce TR/RXR heterodimer proteins, the sf9 insect cells were first grown to a density of 1-5×10^5 cells/mL. […] and RXRα baculovirus stocks were added to the cell culture with a ratio of 1 to 1 (multiplicity of infection=10). The cells were harvested three days after the infection.
(§2) Binding of compounds to either the TRα1 or TRβ1 were also performed by means of scintillation proximity assays (SPA). The SPA assay, a common method used for the quantitation of receptor-ligand equilibria, makes use of special beads coated with a scintillant and a capture molecule, copper, which binds to the histidine-tagged α or β receptor.
For orientation: Size exclusion chromatography separates by hydrodynamic size, large species first.

The target in test [2] is T2, human thyroid hormone receptors TRα1 (Homo sapiens, UniProt P10827).
T2 construct: made in house; host or cells: Sf9 insect cells (baculovirus)
T2 sequence (P10827 1-410 isoform P10827-2): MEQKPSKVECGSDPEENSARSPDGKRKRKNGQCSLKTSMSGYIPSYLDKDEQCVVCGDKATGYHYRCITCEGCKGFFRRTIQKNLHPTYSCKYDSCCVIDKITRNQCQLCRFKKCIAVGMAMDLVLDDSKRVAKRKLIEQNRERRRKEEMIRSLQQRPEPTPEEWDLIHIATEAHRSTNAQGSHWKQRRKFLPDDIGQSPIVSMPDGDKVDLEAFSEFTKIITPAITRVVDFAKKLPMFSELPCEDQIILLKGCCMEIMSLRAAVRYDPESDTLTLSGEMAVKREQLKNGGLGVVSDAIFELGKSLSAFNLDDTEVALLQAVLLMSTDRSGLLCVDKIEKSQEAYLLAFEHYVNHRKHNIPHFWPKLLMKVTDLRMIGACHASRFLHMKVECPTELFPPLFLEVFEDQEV
T2 sequence (P19793 1-462 partner): T1 sequence (P19793 1-462 partner)
Put plainly: Receptor binding to TRα1 (gel filtration and scintillation proximity assay, labeled T3). The method, then: as §1, §2

In the case of `CC(C)c1cc(Cc2c(Cl)cc(OC[P@@]3(=O)OCC[C@@H](c4cccc(Cl)c4)O3)cc2Cl)ccc1O` (relative stereo) [Compound 13-11, Cis(S)-2-[(3,5-dichloro-4-(4′-hydroxy-3′-iso-propylbenzyl)phenoxy)methyl]-4-(3-chlorophenyl)-2-oxo-2λ^5-[1,3,2]-dioxaphosphonane], the “% Cholesterol Lowering” value in the test with plasma cholesterol was −24.8%.
For `CCC(C)c1cc(Cc2c(C)cc(OCP(=O)(OCOC(=O)C(C)(C)C)OCOC(=O)C(C)(C)C)cc2C)ccc1O` (stereo not shown) [Compound 12-4, Di-(pivaloyloxymethyl)[3,5-dimethyl-4-(4′-hydroxy-3′-sec-butylbenzyl)phenoxy]methylphosphonate], in the test with plasma cholesterol, the change in vivo at 0.5 mg/kg/day is -30.5%.
For the molecule `CC(C)c1cc(Oc2c(Br)cc(CP(=O)(OCOC(=O)C(C)(C)C)OCOC(=O)C(C)(C)C)cc2Br)ccc1O` [Compound 12-5, Di-(pivaloyloxymethyl)[3,5-dibromo-4-(4′-hydroxy-3′-iso-propylphenoxy)benzyl]phosphonate], the change in vivo at 0.5 mg/kg/day in the test with plasma cholesterol is -32.5%. Moreover, the cholesterol lowering result in the test on plasma cholesterol (hypercholesterolemic rats, 0.5 mg/kg/d orally) is listed as “demonstrated a significant lowering of cholesterol”.
Turning to `CC(C)c1cc(Oc2c(I)cc(OCP(=O)(OCOC(=O)C(C)(C)C)OCOC(=O)C(C)(C)C)cc2I)ccc1O` [Compound 12-7, Di(pivaloyloxymethyl)[3,5-diiodo-4-(4′-hydroxy-3′-iso-propylphenoxy)phenoxy]methylphosphonate], in the test with plasma cholesterol, the “% Cholesterol Lowering” value is reported as −39.1%.
`CC(C)c1cc(Cc2c(Cl)cc(OCP(=O)(OCOC(=O)C(C)(C)C)OCOC(=O)C(C)(C)C)cc2Cl)ccc1O` [Compound 12-8, Di(pivaloyloxymethyl)[3,5-dichloro-4-(4′-hydroxy-3′-iso-propylbenzyl)phenoxy]methylphosphonate]: the change in vivo at 0.5 mg/kg/day in the test with plasma cholesterol was -33.7%.
With `CC(C)c1cc(Oc2c(Cl)c(F)nc(NCP(=O)(OCOC(=O)C(C)(C)C)OCOC(=O)C(C)(C)C)c2Cl)ccc1O` [Compound 12-9], the “efficacy in lowering cholesterol” value in the test on plasma cholesterol (another experiment, hypercholesterolemic rats) was “not efficacious”.
`CCC(C)c1cc(Cc2c(C)cc(OC[P@@]3(=O)OCC[C@@H](c4cccc(Cl)c4)O3)cc2C)ccc1O` (stereo partly drawn) [Compound 13-8, Cis-(S)-2-[(3,5-dimethyl-4-(4′-hydroxy-3′-sec-butylbenzyl)phenoxy)methyl]-4-(3-chlorophenyl)-2-oxo-2λ^5-[1,3,2]-dioxaphosphonane]: the change in vivo at 0.5 mg/kg/day with plasma cholesterol was -26.5%.
As to `Cc1cc(C(=O)NCP(=O)(O)O)cc(C)c1Oc1ccc(O)c(C(C)C)c1` [Compound 23, N-[3,5-dimethyl-4-(4′-hydroxy-3′-iso-propylphenoxy)benzamido]methyl phosphonic acid], the Ki in test [1] (SPA data, read-out: Ki TRβ) is > 2000 nM; in test [2] (SPA data, read-out: Ki TRα), > 2000 nM.
As to `COc1cc(CCP(=O)(O)O)cc(OC)c1Cc1ccc(O)c(C(C)C)c1` [Compound 24, 2-[3,5-dimethoxy-4-(4′-hydroxy-3′-isopropylbenzyl)phenyl]ethylphosphonic acid], the Ki is > 2000 nM in test [1] (SPA data, read-out: Ki TRβ) and > 2000 nM in test [2] (SPA data, read-out: Ki TRα).
Take `CCc1cc(Cc2c(C)cc(CCP(=O)(O)O)cc2C)ccc1O` [Compound 24-4, 2-[3,5-dimethyl-4-(3′-Ethyl-4′-hydroxy-benzyl)phenyl]ethylphosphonic acid]: the Ki in test [1] (SPA data, read-out: Ki TRβ) is 92 nM; in test [2] (SPA data, read-out: Ki TRα), > 2000 nM.
As for `Cc1cc(OCP(=O)(O)O)cc(C)c1C(=O)c1ccc(O)c(C(C)C)c1` [Compound 25, [3,5-dimethyl-4-(3′-iso-propyl-4′-hydroxybenzoyl)phenoxy]methylphosphonic acid], the results for the Ki in test [1] and in test [2] were 363 nM and > 2000 nM, respectively.
On to `Cc1cc(OCCP(=O)(O)O)cc(C)c1Cc1ccc(O)c(C(C)C)c1` [Compound 26, 2-[3,5-dimethyl-4-(3′-iso-propyl-4′-hydroxybenzyl)phenoxy]ethylphosphonic acid], for which the Ki came to 87 nM in test [1] (read-out: Ki TRβ) and 594 nM in test [2] (read-out: Ki TRα).
Consider `COc1ccc(Oc2c(C)cc(CCP(=O)(O)O)cc2C)cc1C(C)C` [Compound 30, 2-[3,5-dimethyl-4-(3′-iso-propyl-4′-methoxyphenoxy)phenyl]ethylphosphonic acid], for which the Ki in test [1] (SPA data, read-out: Ki TRβ) was > 2000 nM; in test [2] (SPA data, read-out: Ki TRα), > 2000 nM.
Take `Cc1cc(CC(=O)CP(=O)(O)O)cc(C)c1Oc1ccc(O)c(C(C)C)c1` [Compound 32, 3-[3,5-dimethyl-4-(4′-hydroxy-3′-iso-propylphenoxy)]phenyl-2-oxopropylphosphonic acid]: the Ki in test [1] (SPA data, read-out: Ki TRβ) came to 96 nM; in test [2] (SPA data, read-out: Ki TRα), 284 nM.
For `Cc1cc(OCP(=O)(O)O)cc(C)c1Cc1ccc(O)c(I)c1` [Compound 34, [3,5-dimethyl-4-(4′-hydroxy-3′-iodobenzyl)phenoxy]methylphosphonic acid] the same measures were 6.5 nM and 118 nM.
For `Cc1cc(OCP(=O)(O)O)cc(C)c1Cc1ccc(O)c(C(=O)O)c1` [Compound 35, [3,5-dimethyl-4-(3′-carboxyl-4′-hydroxy-benzyl)phenoxy]methylphosphonic acid] the same measures were > 2000 nM and > 2000 nM.
Regarding `Cc1cc(OCP(=O)(O)O)cc(C)c1Cc1ccc(O)c(C(=O)NC(C)C)c1` [Compound 36, [3,5-dimethyl-4-(4′-hydroxy-3′-iso-propylcarbamoylbenzyl)-phenoxy]methylphosphonic acid], the inhibitory constant (Ki) in test [1] (SPA data, read-out: Ki TRβ) is 106 nM; in test [2] (SPA data, read-out: Ki TRα), > 2000 nM.
Taken in the same sequence, the figures for `Cc1cc(OCP(=O)(O)O)cc(C)c1Cc1ccc(O)c(C(=O)c2ccc(F)cc2)c1` [Compound 39, [3,5-dimethyl-4-[3′-(4-fluoro-benzoyl)-4′-hydroxy-benzyl]phenoxy]methylphosphonic acid] were 58 nM and > 2000 nM.
Taken in the same sequence, the figures for `Cc1cc(C(=O)CP(=O)(O)O)cc(C)c1Cc1ccc(O)c(Cc2ccccc2)c1` [Compound 41, [3,5-dimethyl-4-[3′-benzyl-4′-hydroxy-benzyl]benzoyl]methylphosphonic acid] were 181 nM and > 2000 nM.
In the case of `CC(C)c1cc(Cc2c(Cl)cc(C(=O)CP(=O)(O)O)cc2Cl)ccc1F` [Compound 41-3, 2-[3,5-dichloro-4-(4-fluoro-iso-propyl-benzyl)-phenyl]-2-oxo-ethylphosphonic acid], the Ki in test [1] (SPA data, read-out: Ki TRβ) was 280 nM; in test [2] (SPA data, read-out: Ki TRα), > 2000 nM.
Taken in the same sequence, the figures for `Cc1cc(OCP(=O)(O)O)cc(C)c1Sc1ccc(O)c(C(C)C)c1` [Compound 43, [3,5-dimethyl-4-S-[(4′-hydroxy-3′-iso-propylphenyl)sulfanyl]phenoxy]methylphosphonate] were 108 nM and 363 nM.
For the molecule `Cc1cc(OCP(=O)(O)O)cc(C)c1Cc1ccc(O)c(S(=O)(=O)C(C)C)c1` [Compound 44, [3,5-dimethyl-4-[4′-hydroxy-3′-(iso-propylsulfonyl)benzyl]phenoxy]methylphosphonic acid], the Ki in test [1] (SPA data, read-out: Ki TRβ) was determined as 44 nM; in test [2] (SPA data, read-out: Ki TRα), 832 nM.
Turning to `Cc1cc(SCP(=O)(O)O)cc(C)c1Oc1ccc(O)c(C(C)C)c1` [Compound 54, [3,5-Dimethyl-4-(4′-hydroxy-3′-iso-propylphenoxy)benzenesulfanyl]methylphosphonic acid], the Ki in test [1] (read-out: Ki TRβ) came out at 42 nM; in test [2] (read-out: Ki TRα) it was 143 nM.
